Test results taken from patent publication US11111251B2, “Positive allosteric modulators of the muscarinic acetylcholine receptor M1” (Vanderbilt University, priority 2016, dated 2021).
Like-named read-outs stand apart in the source and are kept apart here.

Molecular target: T1, human mAChR M1 (Homo sapiens, UniProt P11229)
T1 sequence (P11229 1-460): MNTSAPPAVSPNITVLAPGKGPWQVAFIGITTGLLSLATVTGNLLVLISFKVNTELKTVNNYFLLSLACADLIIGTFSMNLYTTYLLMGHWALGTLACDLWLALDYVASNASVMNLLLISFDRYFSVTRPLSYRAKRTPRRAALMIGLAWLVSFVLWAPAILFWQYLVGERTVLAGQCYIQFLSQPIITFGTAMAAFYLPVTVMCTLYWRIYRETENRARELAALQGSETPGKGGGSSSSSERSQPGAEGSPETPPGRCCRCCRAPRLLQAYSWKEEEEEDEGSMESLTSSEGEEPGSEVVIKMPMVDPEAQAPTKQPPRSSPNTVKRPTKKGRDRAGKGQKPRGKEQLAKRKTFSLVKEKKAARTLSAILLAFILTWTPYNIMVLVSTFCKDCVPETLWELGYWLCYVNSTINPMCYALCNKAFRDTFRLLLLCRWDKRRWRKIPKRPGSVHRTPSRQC
Assay: mAChR M1 cell-based functional assay: calcium mobilization, positive allosteric modulator mode (increase in EC20 acetylcholine response)
Conditions: for EC50: read-out: Human M1 EC50; for Emax: read-out: Human M1 Emax (%)
Text: a. Cell Lines Expressing Muscarinic Acetylcholine Receptors
Chinese hamster ovary (CHO-K1) cells stably expressing rat (r)M1 were purchased from the American Type Culture Collection and cultured according to their indicated protocol. CHO cells stably expressing human (h)M2, hM3, and hM5 were described previously (Levey, et al., 1991); hMi and hM4 cDNAs were purchased from Missouri S&T cDNA Resource; rM4 cDNA was provided by T. I. Bonner (National Institutes of Health, Bethesda, Md.). rM2 and rM3 were cloned from a rat brain cDNA library and sequence verified. hMi, rM2, rM3, hM4, and rM4 cDNAs were used to stably transfect CHO-K1 cells purchased from the American Type Culture Collection using Lipofectamine2000. To make stable rM2, hM2, rM3, hM4, and rM4 cell lines for use in calcium mobilization assays, these cells also were stably transfected with a chimeric G-protein (Gqi5) (provided by B. R. Conklin, University of California, San Francisco) using Lipofectamine 2000. rMi, hMi, rM3, hM3, rM5, and hM5 cells were grown in Ham's F-12 medium containing 10% heat-inactivated fetal bovine serum (FBS), 20 mM HEPES, and 50 μg/mL G418 sulfate. rM2-Gqi5, hM2-Gqi5, and hM4-Gqi5 cells were grown in the same medium also containing 500 μg/mL Hygromycin B. Stable rM4-Gqi5 cells were grown in DMEM containing 10% heat-inactivated FBS, 20 mM HEPES, 400 μg/mL G418 sulfate, and 500 μg/mL Hygromycin B.
b. Cell-Based Functional Assay of Muscarinic Acetylcholine Receptor Activity
For high throughput measurement of agonist-evoked increases in intracellular calcium, CHO-K1 cells stably expressing muscarinic receptors were plated in growth medium lacking G418 and hygromycin at 15,000 cells/20 μL/well in Greiner 384-well black-walled, tissue culture (TC)-treated, clear-bottom plates (VWR). Cells were incubated overnight at 37° C. and 5% CO2. The next day, cells were washed using an ELX 405 (BioTek) with four washes (80 μL) of assay buffer then aspirated to 20 μL. Next, 20 μL of 16 μM Fluo-4/acetoxymethyl ester (Invitrogen, Carlsbad, Calif.) prepared as a 2.3 mM stock in DMSO and mixed in a 1:1 ratio with 10% (w/v) Pluronic F-127 and diluted in assay buffer was added to the wells and the cell plates were incubated for 50 min at 37° C. and 5% CO2. Dye was removed by washing with the ELX 405 (four […], washes of assay buffer) then aspirated to 20 μL. Compound master plates were formatted in an 11 point CRC format (1:3 dilutions) in 100% DMSO with a starting concentration of 10 mM using the BRAVO liquid handler (Agilent). Test compound CRCs were then transferred to daughter plates (240 nL) using the Echo acoustic plate reformatter (Labcyte, Sunnyvale, Calif.) and then diluted into assay buffer (40 μL) to a 2× stock using a Thermo Fisher Combi (Thermo Fisher Scientific, Waltham, Mass.).
Calcium flux was measured using the Functional Drug Screening System (FDSS) 6000 (Hamamatsu Corporation, Tokyo, Japan) as an increase in the fluorescent static ratio. Compounds were applied to cells (20 μL, 2×) using the automated system of the FDSS 6000 at 4 s into the 300 s protocol and the data were collected at 1 Hz. At 144 s into the 300s protocol, 10 μL of an EC20 concentration of the muscarinic receptor agonist acetylcholine was added (5×), followed by the addition of 12 μL an EC80 concentration of acetylcholine at the 230 s time point (5×). Agonist activity was analyzed as a concentration-dependent increase in calcium mobilization upon compound addition. Positive allosteric modulator activity was analyzed as a concentration-dependent increase in the EC20 acetylcholine response. Antagonist activity was analyzed as a concentration-dependent decrease in the EC80 acetylcholine response. Concentration-response curves were generated using a four-parameter logistical equation in XLfit curve fitting software (IDBS, Bridgewater, N.J.) for Excel (Microsoft, Redmond, Wash.) or Prism (GraphPad Software, Inc., San Diego, Calif.).

Row | EC50 (Table 2, human M1) | Emax (Table 2, human M1) | SMILES | Emax
1 | > 10000 nM | 64.8% | Cn1cc(-c2cc(F)c(Cc3cc(C(=O)N[C@H]4CCCCC[C@@H]4O)nc4ccsc34)c(F)c2)cn1 [Compound 61, 7-[[2,6-difluoro-4-(1-methylpyrazol-4-yl)phenyl]methyl]-N-[(1S,2S)-2-hydroxycycloheptyl]thieno[3,2-b]pyridine-5-carboxamide] | –
2 | > 10000 nM | 41.2% | Cn1cc(-c2ccc(Cc3cc(C(=O)N[C@H]4COCC[C@@H]4O)nc4ccsc34)cn2)cn1 [Compound 62, N-[(3S,4S)-4-hydroxytetrahydropyran-3-yl]-7-[[6-(1-methylpyrazol-4-yl)-3-pyridyl]methyl]thieno[3,2-b]pyridine-5-carboxamide] | –
3 | 3990 nM | 87% | Cc1ccc(Cc2cc(C(=O)NC34CC5CC(CC(O)(C5)C3)C4)nc3ccsc23)cn1 [Compound 63, N-(3-hydroxy-1-adamantyl)-7-[(6-methyl-3-pyridyl)methyl]thieno[3,2-b]pyridine-5-carboxamide] | –
4 | 962 nM | 70.7% | Cc1ccc(Cc2cc(C(=O)NC3C4CC5C[C@H]3CC(O)(C5)C4)nc3ccsc23)cn1 (stereo partly drawn) [Compound 64, N-[(1S)-5-hydroxy-2-adamantyl]-7-[(6-methyl-3-pyridyl)methyl]thieno[3,2-b]pyridine-5-carboxamide] | –
5 | 1720 nM | 37.3% | Cc1ccc(Cc2cc(C(=O)Nc3n[nH]c4ccccc34)nc3ccsc23)cn1 [Compound 65, N-(1H-indazol-3-yl)-7-[(6-methyl-3-pyridyl)methyl]thieno[3,2-b]pyridine-5-carboxamide] | –
6 | 7410 nM | 93% | Cc1ccc(Cc2cc(C(=O)NC3CCCNC3=O)nc3ccsc23)cn1 (centres unmarked) [Compound 66, 7-[(6-methyl-3-pyridyl)methyl]-N-(2-oxo-3-piperidyl)thieno[3,2-b]pyridine-5-carboxamide] | –
7 | 2780 nM | 92.7% | Cc1ccc(Cc2cc(C(=O)NC3CCCCNC3=O)nc3ccsc23)cn1 (centres unmarked) [Compound 67, 7-[(6-methyl-3-pyridyl)methyl]-N-(2-oxoazepan-3-yl)thieno[3,2-b]pyridine-5-carboxamide] | –
8 | 9700 nM | 22.8% | Cc1ccc(Cc2cc(C(=O)NC3C(=O)Nc4ccccc43)nc3ccsc23)cn1 (centres unmarked) [Compound 68, 7-[(6-methyl-3-pyridyl)methyl]-N-(2-oxoindolin-3-yl)thieno[3,2-b]pyridine-5-carboxamide] | –
9 | 6820 nM | 80.3% | Cc1ccc(Cc2cc(C(=O)Nc3cc(C)n[nH]3)nc3ccsc23)cn1 [Compound 69, N-(3-methyl-1H-pyrazol-5-yl)-7-[(6-methyl-3-pyridyl)methyl]thieno[3,2-b]pyridine-5-carboxamide] | –
10 | > 10000 nM | 62.4% | Cc1ccc(Cc2cc(C(=O)Nc3c[nH]cn3)nc3ccsc23)cn1 [Compound 70, N-(1H-imidazol-4-yl)-7-[(6-methyl-3-pyridyl)methyl]thieno[3,2-b]pyridine-5-carboxamide] | –
11 | 80.3 nM | 92.7% | O=C(N[C@@H]1CCC[C@H]1O)c1cc(Cc2ccc(-n3cccn3)cc2)c2sccc2n1 [Compound 71, N-[(1R,2R)-2-hydroxycyclopentyl]-7-[(4-pyrazol-1-ylphenyl)methyl]thieno[3,2-b]pyridine-5-carboxamide] | –
12 | > 10000 nM | 84.5% | O=C(NC1CCCCC1)c1cc(Cc2ccc(-n3cccn3)cc2)c2sccc2n1 [Compound 72, N-cyclohexyl-7-[(4-pyrazol-1-ylphenyl)methyl]thieno[3,2-b]pyridine-5-carboxamide] | –
13 | 50.1 nM | 87.9% | O=C(N[C@@H]1CCCC[C@H]1O)c1cc(Cc2ccc(-n3cccn3)cc2)c2sccc2n1 [Compound 73, N-[(1R,2R)-2-hydroxycyclohexyl]-7-[(4-pyrazol-1-ylphenyl)methyl]thieno[3,2-b]pyridine-5-carboxamide] | –
14 | 12.2 nM | 84.9% | O=C(N[C@@H]1CCOC[C@H]1O)c1cc(Cc2ccc(-n3cccn3)cc2)c2sccc2n1 [Compound 74, N-[(3S,4R)-3-hydroxytetrahydropyran-4-yl]-7-[(4-pyrazol-1-ylphenyl)methyl]thieno[3,2-b]pyridine-5-carboxamide] | –
15 | 22.1 nM | 90.1% | O=C(N[C@@H]1COCC[C@H]1O)c1cc(Cc2ccc(-n3cccn3)cc2)c2sccc2n1 [Compound 75, N-[(3R,4R)-4-hydroxytetrahydropyran-3-yl]-7-[(4-pyrazol-1-ylphenyl)methyl]thieno[3,2-b]pyridine-5-carboxamide] | –
16 | 739 nM | 67.6% | CO[C@@H]1CCCC[C@H]1NC(=O)c1cc(Cc2ccc(-n3cccn3)cc2)c2sccc2n1 [Compound 76, N-[(1R,2R)-2-methoxycyclohexyl]-7-[(4-pyrazol-1-ylphenyl)methyl]thieno[3,2-b]pyridine-5-carboxamide] | –
17 | 136 nM | 84.8% | O=C(N[C@@H]1CCCCC[C@H]1O)c1cc(Cc2ccc(-n3cccn3)cc2)c2sccc2n1 [Compound 77, N-[(1R,2R)-2-hydroxycycloheptyl]-7-[(4-pyrazol-1-ylphenyl)methyl]thieno[3,2-b]pyridine-5-carboxamide] | –
18 | 310 nM | 87.2% | O=C(NC1CCCNC1=O)c1cc(Cc2ccc(-n3cccn3)cc2)c2sccc2n1 (centres unmarked) [Compound 78, N-(2-oxo-3-piperidyl)-7-[(4-pyrazol-1-ylphenyl)methyl]thieno[3,2-b]pyridine-5-carboxamide] | –
19 | 397 nM | 70.5% | O=C(NC1CCCCNC1=O)c1cc(Cc2ccc(-n3cccn3)cc2)c2sccc2n1 (centres unmarked) [Compound 79, N-(2-oxoazepan-3-yl)-7-[(4-pyrazol-1-ylphenyl)methyl]thieno[3,2-b]pyridine-5-carboxamide] | –
20 | > 10000 nM | 33% | O=C(c1cc(Cc2ccc(-n3cccn3)cc2)c2sccc2n1)N1CCC[C@@H](O)C1 [Compound 81, [(3R)-3-hydroxy-1-piperidyl]-[7-[(4-pyrazol-1-ylphenyl)methyl]thieno[3,2-b]pyridin-5-yl]methanone] | –
21 | > 10000 nM | 70.4% | CC1(O)CCN(C(=O)c2cc(Cc3ccc(-n4cccn4)cc3)c3sccc3n2)CC1 [Compound 82, (4-hydroxy-4-methyl-1-piperidyl)-[7-[(4-pyrazol-1-ylphenyl)methyl]thieno[3,2-b]pyridin-5-yl]methanone] | –

Row | SMILES | EC50 (Table 2, human M1) | Emax (Table 2, human M1) | Emax
22 | O=C(c1cc(Cc2ccc(-n3cccn3)cc2)c2sccc2n1)N1[C@@H]2CC[C@H]1CC(O)C2 (stereo partly drawn) [Compound 80, [(1S,5R)-3-hydroxy-8-azabicyclop[3.2.1]octan-8-yl]-[7-[(4-pyrazol-1-ylphenyl)methyl]thieno[3,2-b]pyridin-5-yl]methanone] | > 10000 nM | – | 65.9%
